Key:
Triticum aestivum [1] = assay: Drought stress greenhouse test Part C, visual scoring vs stressed control plants; format: in vivo; settings: spray application 25 g/ha, efficacy range of 3-4 pots
Method: Seeds of monocotyledonous and dicotyledonous crop plants were sown in sandy loam in plastic or wood-fiber pots, covered with soil or sand and cultivated in a greenhouse under good growth conditions. The trial plants were treated at the early leaf stage (BBCH10-BBCH13). To assure uniform water supply before commencement of stress, the potted plants were supplied with water by dam irrigation prior to substance application. The inventive compounds were first formulated as wettable powders (WP) or dissolved in a solvent mixture. The further dilution was effected with water supplemented with 0.2% wetting agent (e.g. agrotin). The finished spray liquor was sprayed onto the green parts of the plant at an equivalent water application rate of 600 l/ha. Substance application was followed immediately by stress treatment of the plants. For this purpose, the wood-fiber pots were transferred in plastic inserts in order to prevent them from subsequently drying out too quickly. Drought stress was induced by gradual drying out under the following conditions: “Day”: 14 hours with illumination at 26-30° C. “Night”: 10 hours without illumination at 18-20° C. The duration of the respective stress phases was guided mainly by the condition of the stressed control plants. It was ended (by re-irrigating and transfer to a greenhouse with good growth conditions) as soon as irreversible damage was observed on the stressed control plants. The end of the stress phase was followed by an about 4-7-day recovery phase, during which the plants were once again kept under good growth conditions in a greenhouse. The duration of the recovery phase was guided mainly by when the trial plants had attained a state which enabled visual scoring of potential effects, and was therefore variable. Once this juncture had been reached, the appearance of the plants treated with test substances was recorded in comparison to the stressed control plants by the following categories: [table] For each substance and dosage, 3-4 pots were treated and evaluated. […] BRSNS=Brassica napus TRZAS=Triticum aestivum

Triticum aestivum [2] = assay: Drought stress test on wheat Part D, reduction in damage intensity from fresh weights; format: in vivo; settings: efficacy = reduction in damage intensity (fresh weight) under drought stress, at least three repeats
From the text: Wheat grains were sown in a standardized number in sandy loam soil plastic pots, covered with soil or sand and grown in a greenhouse under good growth conditions. Pots with uneven degrees of emergence were excluded prior to the start of the trial. The treatment with test substances was effected at the early leaf stage (BBCH10-BBCH13). To assure uniform water supply, the potted plants were supplied with water by dam irrigation prior to substance application. The inventive compounds were first formulated as wettable powders (WP) or dissolved in a solvent mixture. The further dilution was effected with water supplemented with 0.2% wetting agent (e.g. agrotin). The finished spray liquor was sprayed onto the green parts of the plant at an equivalent water application rate of 600 l/ha. Substance application was followed immediately by stress treatment of the plants. Drought stress was induced by gradual drying out under the following conditions: “Day”: 14 hours with illumination at 26-30° C. “Night”: 10 hours without illumination at 18-20° C. The duration of the respective stress phases was guided mainly by the condition of the stressed control plants. It was ended (by re-irrigating and transfer to a greenhouse with good growth conditions) as soon as irreversible damage was observed on the stressed control plants. The end of the stress phase was followed by an about 7-day recovery phase, during which the plants were once again kept under good growth conditions in a greenhouse. The exact duration of the recovery phase was variable for reasons related to the trial. At the end of the recovery phase, the fresh weights of the plant parts above ground were determined. By comparison with unstressed control plants which were kept under good growth conditions over the entire duration of the trial, percentage damage intensities were first calculated from the fresh weight values. The reduction in damage intensity resulting from treatment with test substance was then calculated by the following formula: [formula] EF: Efficacy DIs: Damage intensity of the stressed control plants DIt: Damage intensity of the stressed plants treated with test compound The values reported in table D-1 below are results from at least three repeats. BRSNS=Brassica napus TRZAS=Triticum aestivum

[3] = target: T1, phosphatase ABI1 via the co-regulator RCAR11/PYR1 (Arabidopsis thaliana, UniProt O49686+P49597); assay: In vitro inhibition of the phosphatase ABI1 via the co-regulator RCAR11/PYR1, MUP dephosphorylation; format: biochemical; design: dose or concentration left out as unconfirmed; settings: in a solution of DMSO and water; fluorescence at 460 nm
T1 sequence (O49686 1-191): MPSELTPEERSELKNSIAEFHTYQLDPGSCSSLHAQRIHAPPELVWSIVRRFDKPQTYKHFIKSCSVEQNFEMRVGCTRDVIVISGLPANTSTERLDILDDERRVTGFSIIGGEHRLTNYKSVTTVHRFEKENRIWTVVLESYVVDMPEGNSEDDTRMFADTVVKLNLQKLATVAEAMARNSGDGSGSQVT
T1 sequence (P49597 1-434): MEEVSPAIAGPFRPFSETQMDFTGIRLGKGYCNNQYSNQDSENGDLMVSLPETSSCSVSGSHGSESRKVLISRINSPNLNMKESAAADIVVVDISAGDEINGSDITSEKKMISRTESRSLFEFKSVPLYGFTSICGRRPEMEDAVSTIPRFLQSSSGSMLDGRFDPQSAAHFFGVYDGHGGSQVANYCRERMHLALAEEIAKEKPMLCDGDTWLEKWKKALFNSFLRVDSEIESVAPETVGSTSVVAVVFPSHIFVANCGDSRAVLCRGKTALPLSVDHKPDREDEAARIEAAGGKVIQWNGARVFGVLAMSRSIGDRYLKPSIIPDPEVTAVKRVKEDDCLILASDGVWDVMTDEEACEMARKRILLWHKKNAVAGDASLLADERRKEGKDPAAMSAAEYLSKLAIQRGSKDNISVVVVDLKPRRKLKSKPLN
From the text: Effects of the phytohormone abscisic acid (ABA) on the behavior of plants under abiotic stress and the mechanism of action of ABA are described in the literature (cf. Abrams et al., WO97/23441, Park et al. Science, 2009, 324, 1068; Grill et al. Science, 2009, 324, 1064; Tanokura et al. Biophysics, 2011, 7, 123; Schroeder et al. Plant J. 2010, 61, 290). Therefore, it is possible with the aid of a suitable in vitro test system to derive a correlation between the action of ABA and the stress response of a plant under abiotic stress. In the event of water deficiency (drought stress), plants form the phytohormone abscisic acid (ABA). This binds, along with a co-regulator (Regulatory Component of ABA-Receptor=RCAR according to Grill et al. Science, 2009, 324, 1064 or PYR/PYL according to Cutler et al. Science, 2009, 324, 1068), to a phosphatase (e.g. ABI1, a type 2C protein phosphatase, also abbreviated to PP2C) and inhibits its activity. As a result, a “downstream” kinase (e.g. SnRK2) is no longer dephosphorylated. This kinase, which is thus active, via phosphorylation of transcription factors (e.g. AREB/ABF, cf. Yoshida et al., 2010, 61, 672), switches on a genetic protection program to increase drought stress tolerance. The assay described hereinafter utilizes the inhibition of the phosphatase ABI1 via the co-regulator RCAR11/PYR1 aus Arabidopsis thaliana. For the determination of activity, the dephosphorylation of 4-methylumbelliferyl phosphate (MUP) was measured at 460 nm. The in vitro assay was conducted in Greiner 384-well PS microplates F-well, using two controls: a) 0.5% dimethyl sulfoxide (DMSO) and b) 5 μM abscisic acid (ABA). The assay described here was generally conducted with substance concentrations of the appropriate chemical test substances in a concentration range of 0.1 μM to 100 μM in a solution of DMSO and water. The substance solution thus obtained, if necessary, was stirred with esterase from porcine liver (EC 3.1.1.1) at room temperature for 3 h and centrifuged at 4000 rpm for 30 min. A total volume of 45 μl was introduced into each cavity of the microplate, having the following composition: • 1) 5 μl of substance solution, i.e. a) DMSO 5% or b) abscisic acid solution or c) the corresponding example compound of the general formula (I) dissolved in 5% DMSO. • 2) 20 μl of enzyme buffer mix, composed of a) 40% by vol. of enzyme buffer (10 mL contain equal proportions by volume of 500 mM Tris-HCl pH 8, 500 mM NaCl, 3.33 mM MnCl2, 40 mM dithiothreitol (DTT)), b) 4% by vol. of ABI1 dilution (protein stock solution was diluted so as to give, after addition, a final concentration in the assay of 0.15 μg ABI1/well), c) 4% by vol. of RCAR11 dilution (enzyme stock was diluted so as to give, on addition of the dilution to the enzyme buffer mix, a final concentration in the assay of 0.30 μg enzyme/well), d) 5% by vol. of Tween20 (1%), e) 47% by vol. H2O bi-dist. • 3) 20 μl of substrate mix, composed of a) 10% by vol. of 500 mM Tris-HCl pH8, b) 10% by vol. of 500 mM NaCl, c) 10% by vol. of 3.33 mM MnCl2, d) 5% by vol. of 25 mM MUP, 5% by vol. of Tween20 (1%), 60% by vol. of H2O bi-dist.
Enzyme buffer mix and substrate mix were made up 5 minutes prior to the addition and warmed to a temperature of 35° C. On completion of pipetting of all the solutions and on completion of mixing, the plate was incubated at 35° C. for 20 minutes. Finally, a relative fluorescence measurement was made at 35° C. with a BMG Labtech “POLARstar Optima” microplate reader using a 340/10 nm excitation filter and a 460 nm emission filter. The efficacy of the compounds of the general formula (I) is reported in the table which follows using abscisic acid […] as comparative substance (No. 37) according to the following classification: ++++ (inhibition≧90%), +++ (90%>inhibition≧70%), ++ (70%>inhibition≧50%), + (50%>inhibition≧30%). […]

SMILES: CCC1(C)CC(=O)N(CCOC)c2ccc(NS(=O)(=O)Cc3ccc(Cl)cc3)cc21 (racemic) [F7-165]
- Effect (TRZAS) (Triticum aestivum [1]): 10-20

SMILES: N#CCCCN1C(=O)CCc2cc(NS(=O)(=O)Cc3cccc(Cl)c3)ccc21 [A48-166]
- EF [%] (TRZAS) (Triticum aestivum [2]; 250 g/ha): 13%
- ABI1 inhibition [3]: ++ (70%>inhibition≧50%)

SMILES: COC(=O)CN1C(=O)CCc2cc(NS(=O)(=O)Cc3ccccc3[N+](=O)[O-])ccc21 [A50-177]
- EF [%] (TRZAS) (Triticum aestivum [2]; 250 g/ha): 19%
- ABI1 inhibition [3]: ++ (70%>inhibition≧50%)

SMILES: COC(=O)CCN1C(=O)CCc2cc(NS(=O)(=O)Cc3cccc(C)c3)ccc21 [A51-153]
- EF [%] (TRZAS) (Triticum aestivum [2]; 250 g/ha): 16%
- ABI1 inhibition [3]: ++ (70%>inhibition≧50%)

SMILES: COC(=O)CCN1C(=O)CCc2cc(NS(=O)(=O)Cc3ccc(Cl)cc3)ccc21 [A51-165]
- EF [%] (TRZAS) (Triticum aestivum [2]; 25 g/ha): 18%
- ABI1 inhibition [3]: ++++ (inhibition≧90%)

SMILES: COC(=O)CCN1C(=O)CCc2cc(NS(=O)(=O)Cc3cccc(Cl)c3)ccc21 [A51-166]
- EF [%] (TRZAS) (Triticum aestivum [2]; 250 g/ha): 20%
- ABI1 inhibition [3]: ++ (70%>inhibition≧50%)

SMILES: COC(=O)CCN1C(=O)CCc2cc(NS(=O)(=O)Cc3ccc(C(F)(F)F)cc3)ccc21 [A51-178]
- EF [%] (TRZAS) (Triticum aestivum [2]; 25 g/ha): 10%
- ABI1 inhibition [3]: ++++ (inhibition≧90%)

SMILES: COC(=O)CCN1C(=O)CCc2cc(NS(=O)(=O)Cc3ccc(C#N)cc3)ccc21 [A51-181]
- EF [%] (TRZAS) (Triticum aestivum [2]; 250 g/ha): 15%
- ABI1 inhibition [3]: ++++ (inhibition≧90%)

SMILES: COC(=O)CN1C(=O)CC(C)(C)c2cc(NS(=O)(=O)Cc3ccc(F)cc3)ccc21 [B50-158]
- EF [%] (TRZAS) (Triticum aestivum [2]; 250 g/ha): 18%

SMILES: COC(=O)CN1C(=O)CC(C)(C)c2cc(NS(=O)(=O)Cc3ccccc3Cl)ccc21 [B50-168]
- EF [%] (TRZAS) (Triticum aestivum [2]; 250 g/ha): 14%

SMILES: COC(=O)CN1C(=O)CC(C)(C)c2cc(NS(=O)(=O)Cc3ccc([N+](=O)[O-])cc3)ccc21 [B50-175]
- EF [%] (TRZAS) (Triticum aestivum [2]; 25 g/ha): 12%

SMILES: COC(=O)CN1C(=O)CC(C)(C)c2cc(NS(=O)(=O)Cc3ccc(C(F)(F)F)cc3)ccc21 [B50-178]
- EF [%] (TRZAS) (Triticum aestivum [2]; 250 g/ha): 20%

SMILES: COC(=O)CN1C(=O)CC(C)(C)c2cc(NS(=O)(=O)Cc3cccc(C(F)(F)F)c3)ccc21 [B50-179]
- EF [%] (TRZAS) (Triticum aestivum [2]; 250 g/ha): 15%

SMILES: COC(=O)CCN1C(=O)CC(C)(C)c2cc(NS(=O)(=O)Cc3ccc(F)cc3)ccc21 [B51-158]
- EF [%] (TRZAS) (Triticum aestivum [2]; 25 g/ha): 13%

SMILES: COC(=O)CCN1C(=O)CC(C)(C)c2cc(NS(=O)(=O)Cc3cccc(Br)c3)ccc21 [B51-173]
- EF [%] (TRZAS) (Triticum aestivum [2]; 25 g/ha): 16%

SMILES: CCOC(=O)CCN1C(=O)CC(C)(C)c2cc(NS(=O)(=O)Cc3ccc(F)cc3)ccc21 [B52-158]
- EF [%] (TRZAS) (Triticum aestivum [2]; 25 g/ha): 10%

SMILES: CCOC(=O)CCN1C(=O)CC(C)(C)c2cc(NS(=O)(=O)Cc3cccc(Cl)c3)ccc21 [B52-166]
- EF [%] (TRZAS) (Triticum aestivum [2]; 250 g/ha): 14%

SMILES: CCOC(=O)CCN1C(=O)CC(C)(C)c2cc(NS(=O)(=O)Cc3ccc(Br)cc3)ccc21 [B52-172]
- EF [%] (TRZAS) (Triticum aestivum [2]; 250 g/ha): 14%

SMILES: CCOC(=O)CCN1C(=O)CC(C)(C)c2cc(NS(=O)(=O)Cc3cccc(Br)c3)ccc21 [B52-173]
- EF [%] (TRZAS) (Triticum aestivum [2]; 25 g/ha): 14%

SMILES: CCOC(=O)CCN1C(=O)CC(C)(C)c2cc(NS(=O)(=O)Cc3ccc([N+](=O)[O-])cc3)ccc21 [B52-175]
- EF [%] (TRZAS) (Triticum aestivum [2]; 250 g/ha): 10%

SMILES: Cc1ccc(S(=O)(=O)Nc2ccc3c(c2)C2(CCC2)CC(=O)N3CC2CC2)cc1 [J3-50, 4-Methyl-N-[1′-(cyclopropylmethyl)-2′-oxo-2′,3′-dihydro-1′H-spiro[cyclobutyl-1,4′-quinolin]-6′-yl]phenylsulfonamide]
- ABI1 inhibition [3]: + (50%>inhibition≧30%)

SMILES: CC1=CC(=O)CC(C)(C)[C@@]1(O)/C=C/C(C)=C\C(=O)O [abscisic acid, reference compound]
- ABI1 inhibition [3]: ++++ (inhibition≧90%)

Reference: patent US20170027172A1, “USE OF SUBSTITUTE OXO TETRAHYDROQUINOLINE SULFONAMIDES OR SALTS THEREOF FOR RAISING STRESS TOLERANCE OF PLANTS” (BAYER CROPSCIENCE AKTIENGESELLSCHAFT, priority 2014, published 2017)
